The values below come from patent US5852190A, “Diazepinoindoles as phosphodiesterase IV inhibitors” (Institut de Recherche Jouveinal SA, priority 1994, dated 1998).

The first series deals with PDE IV. Briefly: PDE IV inhibition (partially purified enzyme) compared with rolipram. The series is classed as biochemical. Particulars: enzyme preparation obtained from guinea-pig trachea; same enzyme preparation for rolipram and product. Here is the method:
The capacity of the compounds of formula (I) of the invention to inhibit cyclic nucleotide phosphodiesterases is evaluated by measuring their IC50 (concentration of inhibitor required to inhibit enzymatic activity by 50%). In the case of PDEs IV, this value is compared with the IC50 of rolipram, a specific inhibitor of PDE IV, by the ratio of the IC50 of rolipram to the IC50 of the product to be tested, in relation to the same enzyme preparation.
The different classes of phosphodiesterases are obtained in partially purified form on a DEAE-cellulose column from guinea-pig trachea and dog aorta according to a method adapted from that of W. J. Thompson et al., 1979, Advances in Cyclic Nucleotide Research, Vol. 10: 69-92, ed. G. Brooker et al., Raven Press, New York, and of P. J. Silver et al., 1988, Eur. J. Pharmacol. 150: 85-94.
Subsequently, the measurement of the enzymatic activity of the different classes of PDE, and in particular of the PDEs IV, is carried out according to a method which is likewise adapted from that of W. J. Thompson, ibidem.
For the determination of the IC50 the enzymatic activity is measured in the presence of the inhibitor in a range of concentrations from 0.1 to 100 μM.
The following table illustrates the PDE IV-inhibitory activity in comparison with that of rolipram for an enzyme preparation obtained from guinea-pig trachea.
Regarding `O=C(NC1N=C(c2ccccc2)c2cccc3c2N(CC3)C1=O)c1cn2ccccc2n1` (racemic) [Example 1B, (3R,S)-Imidazo[1,2-a]pyridine-2-carboxylic acid N-(4-oxo-1-phenyl-3,4,6,7-tetrahydro1,4]diazepino-[6,7,1-hi]indol-3-yl)amide], the “IC50 rolipram / IC50 example (PDE IV-inhibitory effect compared with rolipram)” value was 3.7.

For `COc1ccc(Cl)cc1C(=O)N[C@@H]1N=C(c2ccccc2)c2cccc3c2N(CC3)C1=O` [Example 2N, (3R) -2-Methoxy-5-chloro-N-(4-oxo-1-phenyl-3,4,6,7-tetrahydro[1,4]diazepino[6,7,1-hi]indol-3-yl)-benzamide], the “IC50 rolipram / IC50 example (PDE IV-inhibitory effect compared with rolipram)” value came to 2.5. On the same count and under the same terms, then `COc1cc(C(=O)N[C@@H]2N=C(c3ccccc3)c3cccc4c3N(CC4)C2=O)cc(OC)c1OC` [Example 2M, (3R)-3,4,5-Trimethoxy-N-(4-oxo-1-phenyl-3,4,6,7-tetrahydro[1,4]diazepino[6,7,1-hi]indol-3-yl)-benzamide], with 1.3; and `COc1cc2c3c(c1)C(c1ccccc1)=N[C@@H](NC(=O)c1cc4ccccc4cn1)C(=O)N3CC2` [Example 6F, (3R)-Isoquinoline-3-carboxylic acid (9-methoxy-4-oxo-1-phenyl-3,4,6,7-tetrahydro[1,4]diazepino-[6,7,1-hi]indol-3-yl)amide], with 1.2; and `O=C(N[C@@H]1N=C(c2ccccc2)c2cccc3c2N(CC3)C1=O)c1ccc(F)cc1` [Example 2C, (3R)-4-Fluoro-N-(4-oxo-1-phenyl-3,4,6,7-tetrahydro[1,4]diazepino[6,7,1-hi]indol-3-yl) -benzamide], with 1.2. Still for that read-out and setting: the figure for `Cc1cc2nnc(C(=O)N[C@@H]3N=C(c4ccccc4)c4cccc5c4N(CC5)C3=O)c(C)n2n1` [Example 2Y, (3R)-4,7-Dimethyl-pyrazolo[5,1-c][1,2,4]triazine-3-carboxylic acid (4-oxo-1-phenyl-3,4,6,7-tetrahydro[1,4]diazepino[6,7,1-hi]indol-3-yl)amide] is 1.4; for `O=C(N[C@@H]1N=C(c2ccccc2)c2cccc3c2N(CC3)C1=O)c1cnc2ccccc2c1` [Example 2S, (3R)-Quinoline-3-carboxylic acid (4-oxo-1-phenyl-3,4,6,7-tetrahydro[1,4]diazepino[6,7,1-hi]indol-3-yl)amide] it is 3.3; for `COc1cc2c3c(c1)C(c1ccccc1)=N[C@@H](NC(=O)c1cnc4ccccc4c1)C(=O)N3CC2` [Example 6D, (3R)-Quinoline-3-carboxylic acid (9-methoxy-4-oxo-1-phenyl-3,4,6,7-tetrahydro[1,4]diazepino[6,7,1-hi]indol-3-yl)amide] it is 1.9. The same measure, in the same setting: then `O=C(N[C@@H]1N=C(c2ccccc2)c2cccc3c2N(CC3)C1=O)c1ccc2ncccc2c1` [Example 2T, (3R)-Quinoline-6-carboxylic acid (4-oxo-1-phenyl-3,4,6,7-tetrahydro[1,4]diaze-ino[6,7,1-hi]indol-3-yl)amide], with 2.0; and `COc1cc2c3c(c1)C(c1ccccc1)=N[C@@H](NC(=O)c1cccc(Cl)c1)C(=O)N3CC2` [Example 6A, (3R)-3-Chloro-N-(9-methoxy-4-oxo-1-phenyl-3,4,6,7-tetrahydro[1,4]diazepino[6,7,1-hi]indol-3-yl)benzamide], with 2.7.

Consider `O=C(N[C@@H]1N=C(c2ccccc2)c2cccc3c2N(CC3)C1=O)c1cccc(F)c1` [Example 2B, (3R)-3-Fluoro-N-(4-oxo-1-phenyl-3,4,6,7-tetrahydro[1,4]diazepino[6,7,1-hi]indol-3-yl)-benzamide], for which the “IC50 rolipram / IC50 example (PDE IV-inhibitory effect compared with rolipram)” value was determined as 1.2. Turning to `COc1cc2c3c(c1)C(c1ccccc1)=N[C@@H](NC(=O)c1ccc4ncccc4c1)C(=O)N3CC2` [Example 6E, (3R) -Quinoline-6-carboxylic acid (9-methoxy-4-oxo-1-phenyl-3,4,6,7-tetrahydro[1,4]diazepino[6,7,1-hi]indol-3-yl)amide], the “IC50 rolipram / IC50 example (PDE IV-inhibitory effect compared with rolipram)” value is reported as 1.9.

On to `COc1cc2c3c(c1)C(c1ccccc1)=N[C@@H](NC(=O)c1ccncc1)C(=O)N3CC2` [Example 6C, (3R)-N-(9-methoxy-4-oxo-1-phenyl-3,4,6,7-tetrahydro[1,4]diaze-ino[6,7,1-hi]indol-3-yl)isonicotinamide], for which the “IC50 rolipram / IC50 example (PDE IV-inhibitory effect compared with rolipram)” value was 1.6. On the same count and under the same terms, the figure for `CC(=O)Nc1ccc(C(=O)N[C@@H]2N=C(c3ccccc3)c3cccc4c3N(CC4)C2=O)cc1` [Example 2O, (3R)-4-Acetamido-N-(4-oxo-1-phenyl-3,4,6,7-tetrahydro[1,4]diazepino[6,7,1-hi]indol-3-yl)-benzamide] is 1.9. On the same count and under the same terms, then `COc1cc2c3c(c1)C(c1ccccc1)=N[C@@H](NC(=O)c1nnc4cc(C)nn4c1C)C(=O)N3CC2` [Example 6G, (3R)-4.7-Dimethylpyrazolo[5,1-c[]1,2,4]-triazine-3-carboxylic acid (9-methoxy-4-oxo-1-phenyl-3,4,6,7-tetrahydro[1,4]diazepino[6,7,1-hi]indol-3-yl)-amide], with 2.2.

As for `COc1cc2c3c(c1)C(c1ccccc1)=N[C@@H](NC(=O)c1ccc(Cl)cc1)C(=O)N3CC2` [Example 6B, (3R)-4-Chloro-N-(9-methoxv-4-oxo-1-phenyl-3,4,6,7-tetrahydro[1,4]diazepino[6,7,1-hi]indol-3-yl)benzamide], the “IC50 rolipram / IC50 example (PDE IV-inhibitory effect compared with rolipram)” value is reported as 1.6.

Take `COc1cc2c3c(c1)C(c1ccccc1)=NC(NC(=O)c1cc4ccccc4cn1)C(=O)N3CC2` [Example 5, (3R,S)-Isoquinoline-3-carboxylic acid (9-methoxy-4-oxo-1-phenyl-3,4,6,7-tetrahydro[1,4]-diazepino(6,7,1-hilindol-3yl)amide]: the “IC50 rolipram / IC50 example (PDE IV-inhibitory effect compared with rolipram)” value was 1.2. Still for that read-out and setting: then `O=C(N[C@@H]1N=C(c2ccccc2)c2cccc3c2N(CC3)C1=O)c1ccccn1` [Example 2P, (3R)-Pyridine-2-carboxylic acid (4-oxo-1-phenyl-3,4,6,7-tetrahydro[1,4]diazepino[6,7,1-hi]indol-3-yl)amide], with 1.5.

Test system in a further series: not listed separately
Briefly: subacute oral toxicity in the rat. The series is classed as in vivo. Particulars: 100 mg/kg/day for two weeks, 1% aqueous suspension in methyl cellulose. An excerpt: The subacute oral toxicity of Example 2V was studied in the rat.
For the molecule `O=C(N[C@@H]1N=C(c2ccccc2)c2cccc3c2N(CC3)C1=O)c1cc2ccccc2cn1` [Example 2V, (3R)-Isocuinoline-3-carboxylic acid (4-oxo-1-phenyl-3,4,6,7-tetrahdro[1,4]diazerino[6,7,1-hi]indol-3-yl)amide], the subacute oral toxicity entry is “showed no activity which could be linked with a toxic effect”.

A further series deals with inflammatory cells.
Experiment: not given
Particulars: in vitro, rodents; cited from earlier work.
As to `COc1ccc(C2CNC(=O)C2)cc1OC1CCCC1` (stereo not drawn) [Rolipram], the “inhibition of the activity of inflammatory cells” value was “inhibits the activity of inflammatory cells in rodents”.

Test system in another series: not given
Experiment: not given
Particulars: in use; cited from earlier work.
Turning to `COc1ccc(C2CNC(=O)C2)cc1OC1CCCC1` (stereo not drawn) [Rolipram], the undesirable effects result was “nausea and vomiting”. Turning to `Cn1c(=O)c2[nH]cnc2n(C)c1=O` [Theophylline], the undesirable effects entry is “nausea and headaches”.

Still in this series, the particulars now being: methylxanthines such as theophylline; cited from earlier work.
As to `Cn1c(=O)c2[nH]cnc2n(C)c1=O` [Theophylline], the therapeutic index result is listed as “low therapeutic index”.

The subject of a further series is phosphodiesterase.
Experiment: not given
Particulars: nonspecific inhibitor; cited from earlier work.
On to `Cn1c(=O)c2[nH]cnc2n(C)c1=O` [Theophylline], for which the “inhibition of several classes of phosphodiesterases” value is “inhibit several classes of enzymes”.
